Target: FLT3 kinase (FLT3 kinase domain alone, Upstate) (Homo sapiens (Human), UniProt P36888)
Assay: FLT3 kinase assay ([33P] incorporation into substrate)
Type: biochemical
Conditions: 100 μM ATP, 30° C., 30 minutes; read-out: IC50 against FLT3
Method: Inhibition of FLT3 kinase activity by compounds disclosed herein was quantified by measuring the amount of [^33P] incorporated into the substrate in the presence of a test compound. Briefly, a reaction mixture of 25 μL final volume containing 5 ng of FLT3 kinase (FLT3 kinase domain alone, Upstate), 5 μg of the substrate [(Poly (Glu-Tyr, 4:1), Sigma], kinase reaction buffer (20 mM MOPS pH 7.0, 1 mM EDTA, 5% glycerol, 0.01% Brij-35, 0.1% β-mercaptoethanol, 1 mg/mL BSA, 100 μM ATP, 0.1 μCi per well [^33P]-γ-ATP (2,500-3,000 Ci/mmol)), and a test compound (diluted from 9 μM to the desired final concentration by 4% DMSO) or DMSO (as the control) was incubated at 30° C. for 30 minutes. The reaction was stopped by adding 5 μL of 3% phosphoric acid solution. The resultant solution (30 μL) was later harvested by a UniFilter Plate GF/B (PerkinElmer) followed by adding 30 μL of the scintillation cocktail (MicroScint 20, PerkinElmer) to the well. The radioactivity retained on the filter membrane was measured by a luminescence counter (PerkinElmer). The results were analyzed by using linear regression software (GraphPad Prism 4; GraphPad Software Inc.).

Chain of FLT3 kinase (FLT3 kinase domain alone, Upstate) (P36888 610-943): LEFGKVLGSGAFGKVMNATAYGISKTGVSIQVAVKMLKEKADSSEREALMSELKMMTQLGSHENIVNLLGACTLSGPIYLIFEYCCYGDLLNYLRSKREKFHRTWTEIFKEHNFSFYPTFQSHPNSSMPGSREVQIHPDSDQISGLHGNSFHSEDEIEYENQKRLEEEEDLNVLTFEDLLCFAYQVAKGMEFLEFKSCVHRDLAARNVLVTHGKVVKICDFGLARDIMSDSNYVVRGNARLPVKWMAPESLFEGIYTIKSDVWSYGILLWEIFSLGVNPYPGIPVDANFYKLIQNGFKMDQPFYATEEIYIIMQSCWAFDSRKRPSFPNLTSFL

Compound | IC50 [nM]
6-(2-Fluoro-phenyl)-4,7-dihydro-1-thia-4,5-diaza-cyclopenta[a]pentalene [Example-41] | < 100
6-(3-Fluoro-phenyl)-4,7-dihydro-1-thia-4,5-diaza-cyclopenta[a]pentalene [Example-38] | 100 to 499
6-[4-(4-Methyl-piperazin-1-yl)-phenyl]-2-pyridin-3-yl-4,7-dihydro-1-thia-4,5-diaza-cyclopenta[a]pentalene hydrochloride [Example-90] | < 100
COc1ccc(-c2n[nH]c3c2Cc2sccc2-3)c(OC)c1 [Example-4, 6-(2,4-Dimethoxy-phenyl)-4,7-dihydro-1-thia-4,5-diaza-cyclopenta[a]pentalene] | < 100
c1cc(-c2n[nH]c3c2Cc2sccc2-3)co1 [Example-17, 6-Furan-3-yl-4,7-dihydro-1-thia-4,5-diaza-cyclopenta[a]pentalene] | 500 to 1000
Clc1ccc(Nc2n[nH]c3c2Cc2sccc2-3)c(Cl)c1 [Example-21, (2,4-Dichloro-phenyl)-(4,7-dihydro-1-thia-4,5-diaza-cyclopenta[a]pentalen-6-yl)-amine] | 500 to 1000
COc1ccc(Nc2n[nH]c3c2Cc2sccc2-3)cc1OC [Example-24, (4,7-Dihydro-1-thia-4,5-diaza-cyclopenta[a]pentalen-6-yl)-(3,4-dimethoxy-phenyl)-amine] | < 100
Clc1cccc(Nc2[nH]nc3c2Cc2sccc2-3)c1 [Example-25, (3-Chloro-phenyl)-(4,7-dihydro-1-thia-4,5-diaza-cyclopenta[a]pentalen-6-yl)-amine] | < 100
COc1cccc(Nc2n[nH]c3c2Cc2sccc2-3)c1 [Example-26, (4,7-Dihydro-1-thia-4,5-diaza-cyclopenta[a]pentalen-6-yl)-(3-methoxy-phenyl)-amine] | < 100
Brc1cc2c(s1)Cc1c(-c3ccccc3)n[nH]c1-2 [Example-27] | < 100
[O-][n+]1cccc(-c2n[nH]c3c2Cc2sccc2-3)c1 [Example-28, 6-(1-Oxy-pyridin-3-yl)-4,7-dihydro-1-thia-4,5-diaza-cyclopenta[a]pentalene] | > 1000
FC(F)(F)c1cccc(Nc2n[nH]c3c2Cc2sccc2-3)c1 [Example-29, (4,7-Dihydro-1-thia-4,5-diaza-cyclopenta[a]pentalen-6-yl)-(3-trifluoromethyl-phenyl)-amine] | < 100
Clc1ccccc1Nc1n[nH]c2c1Cc1sccc1-2 [Example-31, (2-Chloro-phenyl)-(4,7-dihydro-1-thia-4,5-diaza-cyclopenta[a]pentalen-6-yl)-amine] | 100 to 499
Brc1ccc(-c2n[nH]c3c2Cc2sc(Br)cc2-3)cc1 [Example-33, 2-Bromo-6-(4-bromo-phenyl)-4,7-dihydro-1-thia-4,5-diaza-cyclopenta[a]pentalene] | < 100
COc1ccc(-c2n[nH]c3c2Cc2sc(Br)cc2-3)cc1 [Example-34, 2-Bromo-6-(4-methoxy-phenyl)-4,7-dihydro-1-thia-4,5-diaza-cyclopenta[a]pentalene] | < 100
Brc1cccc(Nc2n[nH]c3c2Cc2sccc2-3)c1 [Example-36, (3-Bromo-phenyl)-(4,7-dihydro-1-thia-4,5-diaza-cyclopenta[a]pentalen-6-yl)-amine] | 100 to 499
FC(F)(F)c1ccccc1Nc1n[nH]c2c1Cc1sccc1-2 [Example-42, (4,7-Dihydro-1-thia-4,5-diaza-cyclopenta[a]pentalen-6-yl)-(2-trifluoromethyl-phenyl)-amine] | > 1000
FC(F)(F)c1cc(-c2n[nH]c3c2Cc2sccc2-3)cc(C(F)(F)F)c1 [Example-43, 6-(3,5-Bis-trifluoromethyl-phenyl)-4,7-dihydro-1-thia-4,5-diaza-cyclopenta[a]pen talene] | > 1000

Now from value to compound:

IC50 [nM] | Compound
< 100 | Brc1ccc(-c2[nH]nc3c2Cc2sccc2-3)cc1 [Example-1, 6-(4-Bromo-phenyl)-5,7-dihydro-1-thia-4,5-diaza-cyclopenta[a]-pentalene]
100 to 499 | COc1cccc(-c2n[nH]c3c2Cc2sccc2-3)c1 [Example-3, 6-(3-Methoxy-phenyl)-4,7-dihydro-1-thia-4,5-diaza-cyclopenta[a]pentalene]
100 to 499 | O=[N+]([O-])c1ccc(-c2n[nH]c3c2Cc2sccc2-3)cc1 [Example-5, 6-(4-Nitro-phenyl)-4,7-dihydro-1-thia-4,5-diaza-cyclopenta[a]pentalene]
100 to 499 | c1ccc(-c2n[nH]c3c2Cc2sccc2-3)cc1 [Example-6, 6-Phenyl-4,7-dihydro-1-thia-4,5-diaza-cyclopenta[a]pentalene]
100 to 499 | Fc1ccc(Nc2ccc(-c3n[nH]c4c3Cc3sccc3-4)cc2)cc1 [Example-7, [4-(4,7-Dihydro-1-thia-4,5-diaza-cyclopenta[a]pentalen-6-yl)-phenyl]-(4-fluoro-phenyl)-amine]
100 to 499 | COc1ccc(Nc2ccc(-c3n[nH]c4c3Cc3sccc3-4)cc2)cc1 [Example-8, [4-(4,7-Dihydro-1-thia-4,5-diaza-cyclopenta[a]pentalen-6-yl)-phenyl]-(4-methoxy-phenyl)-amine]
< 100 | COc1cc(-c2ccc(-c3n[nH]c4c3Cc3sccc3-4)cc2)ccc1O [Example-9, 4′-(4,7-Dihydro-1-thia-4,5-diaza-cyclopenta[a]pentalen-6-yl)-3-methoxy-biphenyl-4-ol]
< 100 | Oc1ccc(-c2ccc(-c3n[nH]c4c3Cc3sccc3-4)cc2)cc1 [Example-11, 4′-(4,7-Dihydro-1-thia-4,5-diaza-cyclopenta[a]pentalen-6-yl)-biphenyl-4-ol]
> 1000 | C(=Cc1ccc(-c2n[nH]c3c2Cc2sccc2-3)cc1)c1ccccc1 [Example-12, 6-(4-Styryl-phenyl)-4,7-dihydro-1-thia-4,5-diaza-cyclopenta[a]pentalene]
100 to 499 | Nc1ccc(Nc2ccc(-c3n[nH]c4c3Cc3sccc3-4)cc2)cc1 [Example-13, N-[4-(4,7-Dihydro-1-thia-4,5-diaza-cyclopenta[a]pentalen-6-yl)-phenyl]-benzene-1,4-diamine]
< 100 | COc1ccc(-c2ccc(-c3n[nH]c4c3Cc3sccc3-4)cc2)cc1OC [Example-14, 6-(3′,4′-Dimethoxy-biphenyl-4-yl)-4,7-dihydro-1-thia-4,5-diaza-cyclopenta[a]pent alene]
< 100 | N#Cc1ccc(-c2ccc(-c3n[nH]c4c3Cc3sccc3-4)cc2)cc1 [Example-15, 4′-(4,7-Dihydro-1-thia-4,5-diaza-cyclopenta[a]pentalen-6-yl)-biphenyl-4-carbonitrile]
100 to 499 | c1cncc(-c2n[nH]c3c2Cc2sccc2-3)c1 [Example-16, 6-Pyridin-3-yl-4,7-dihydro-1-thia-4,5-diaza-cyclopenta[a]pentalene]
100 to 499 | Clc1cc(Cl)cc(-c2ccc(-c3n[nH]c4c3Cc3sccc3-4)cc2)c1 [Example-18, 6-(3′,5′-Dichloro-biphenyl-4-yl)-4,7-dihydro-1-thia-4,5-diaza-cyclopenta[a]pentalene]
> 1000 | FC(F)(F)c1ccc(-c2ccc(-c3n[nH]c4c3Cc3sccc3-4)cc2)cc1 [Example-19, 6-(4′-Trifluoromethyl-biphenyl-4-yl)-4,7-dihydro-1-thia-4,5-diaza-cyclopenta[a]pentalene]
100 to 499 | Brc1ccc(Nc2n[nH]c3c2Cc2sccc2-3)cc1 [Example-20, (4-Bromo-phenyl)-(4,7-dihydro-1-thia-4,5-diaza-cyclopenta[a]pentalen-6-yl)-amine]
100 to 499 | Ic1ccc(Nc2n[nH]c3c2Cc2sccc2-3)cc1 [Example-22, (4,7-Dihydro-1-thia-4,5-diaza-cyclopenta[a]pentalen-6-yl)-(4-iodo-phenyl)-amine]
> 1000 | COc1ccc(Nc2n[nH]c3c2Cc2sccc2-3)cc1 [Example-23, (4,7-Dihydro-1-thia-4,5-diaza-cyclopenta[a]pentalen-6-yl)-(4-methoxy-phenyl)-amine]
100 to 499 | Fc1cccc(Nc2n[nH]c3c2Cc2sccc2-3)c1 [Example-30, (4,7-Dihydro-1-thia-4,5-diaza-cyclopenta[a]pentalen-6-yl)-(3-fluoro-phenyl)-amine]
100 to 499 | Clc1ccc(Nc2n[nH]c3c2Cc2sccc2-3)cc1 [Example-32, (4-Chloro-phenyl)-(4,7-dihydro-1-thia-4,5-diaza-cyclopenta[a]pentalen-6-yl)-amine]
100 to 499 | FC(F)(F)c1ccc(Nc2n[nH]c3c2Cc2sccc2-3)cc1 [Example-35, (4,7-Dihydro-1-thia-4,5-diaza-cyclopenta[a]pentalen-6-yl)-(4-trifluoromethyl-phenyl)-amine]
< 100 | Fc1cccc(Nc2ccc(-c3n[nH]c4c3Cc3sccc3-4)cc2)c1 [Example-37, [4-(4,7-Dihydro-1-thia-4,5-diaza-cyclopenta[a]pentalen-6-yl)-phenyl]-(3-fluoro-phenyl)-amine]
< 100 | Clc1cccc(-c2n[nH]c3c2Cc2sccc2-3)c1 [Example-39, 6-(3-Chloro-phenyl)-4,7-dihydro-1-thia-4,5-diaza-cyclopenta[a]pentalene]
100 to 499 | Fc1ccc(-c2n[nH]c3c2Cc2sccc2-3)cc1 [Example-40, 6-(4-Fluoro-phenyl)-4,7-dihydro-1-thia-4,5-diaza-cyclopenta[a]pentalene]

Source: patent US8853207B2 (Development Center for Biotechnology, priority 2012, dated 2014)
